Patent publication US7132420B2, “Aspartic protease inhibitors” (The United States of America as represented by the …, priority 1999, dated 2006)
Like-named read-outs stand apart in the source and are kept apart here.

What was measured:
HIV-1 protease = HIV-1 protease (Human immunodeficiency virus type 1 group M subtype B, UniProt P04585); experiment: HIV protease assay (Ki); assay type: biochemical
Source text: (§1) This example illustrates the HIV-1 protease inhibition activity (Ki), HIV-1 antiviral data (EC50), and the toxicity against normal cells (IC50), for particular compounds of formula (I). The HIV protease assay was done according to the protocol described in Kageyama et al, Antimicrob. Agents Chemother., 37, 272 (1993). The HIV antiviral assay was done according to the protocol described in Weislow et al., J. National Cancer Inst. 81, 577 (1989).
(§2) The HIV protease assay was done according to the protocol described in Example 35. The plasmepsin II assay was done according to the protocol used in Silva et al., Proc. Nat. Acad. Sci. USA, 93, pp. 10034–10039, September 1996 (Biochemstry). The cathepsin D assay was done according to the protocol described in Gulnik et al., FEBS Letters, 413, 379–384 (1997). The compounds illustrated in Table 2 are of the general formula (II), as described in Example 35.

[1] = target: 84V mutant HIV-1 protease (Human immunodeficiency virus type 1 group M subtype B, UniProt P04585, I572V); experiment: HIV protease assay, 84V mutant (Ki); assay type: biochemical
Source text: as §1

[2] = target: 32I mutant HIV-1 protease (Human immunodeficiency virus type 1 group M subtype B, UniProt P04585, V520I); experiment: HIV protease assay, 32I mutant (Ki); assay type: biochemical; details: Table 1; read-out: 321 Ki
Source text: as §1

[3] = target: 82F/84V mutant HIV-1 protease (Human immunodeficiency virus type 1 group M subtype B, UniProt P04585, I572V/V570F); assay type: biochemical
Source text: as §1

HIV-1 = experiment: HIV antiviral assay (EC50); assay type: cell-based
Source text: The HIV protease assay was done according to the protocol described in Kageyama et al, Antimicrob. Agents Chemother., 37, 272 (1993). The HIV antiviral assay was done according to the protocol described in Weislow et al., J. National Cancer Inst. 81, 577 (1989).

normal cells = experiment: toxicity against normal cells (IC50); assay type: cell-based
Source text: as §1

cathepsin D = cathepsin D (Homo sapiens, UniProt P07339); experiment: cathepsin D assay (Ki); assay type: biochemical; details: for Ki: Table 2, read-out: Cath D Ki
cathepsin D, sequence (P07339 65-412): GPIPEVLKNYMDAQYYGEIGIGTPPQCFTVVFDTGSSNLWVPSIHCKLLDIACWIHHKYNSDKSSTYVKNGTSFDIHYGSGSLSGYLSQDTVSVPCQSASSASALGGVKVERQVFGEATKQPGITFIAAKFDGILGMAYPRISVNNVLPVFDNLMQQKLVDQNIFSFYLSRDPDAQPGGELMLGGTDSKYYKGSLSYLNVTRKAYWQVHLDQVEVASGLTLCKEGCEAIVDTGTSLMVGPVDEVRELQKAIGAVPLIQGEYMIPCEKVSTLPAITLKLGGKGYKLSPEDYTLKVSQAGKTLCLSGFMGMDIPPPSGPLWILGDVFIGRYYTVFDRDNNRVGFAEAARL
Source text: as §2

plasmepsin II = plasmepsin II (Plasmodium falciparum, UniProt P46925); experiment: biochemical; assay type: biochemical; details: for Ki: Table 2, read-out: Pls II Ki
plasmepsin II, sequence (P46925 125-453): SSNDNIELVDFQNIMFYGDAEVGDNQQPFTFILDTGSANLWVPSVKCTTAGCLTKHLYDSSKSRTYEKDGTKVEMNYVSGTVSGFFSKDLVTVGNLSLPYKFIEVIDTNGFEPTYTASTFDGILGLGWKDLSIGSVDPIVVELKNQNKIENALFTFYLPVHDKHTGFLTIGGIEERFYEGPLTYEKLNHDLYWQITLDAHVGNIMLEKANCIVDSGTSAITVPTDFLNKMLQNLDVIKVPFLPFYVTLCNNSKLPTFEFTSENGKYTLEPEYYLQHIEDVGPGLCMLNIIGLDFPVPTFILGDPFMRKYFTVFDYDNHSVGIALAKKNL
Source text: as §2

Rat IV pharmacokinetics = assay type: in vivo, rats; details: IV about 5 mg/kg
Experimental: (§3) This example illustrates the oral bioavailability of various compounds of the present invention. […] Drug concentrations were measured by centrifuging plasma samples, extracting the supernatants with tert-butyl methyl ether, and analyzing the extracts by HPLC. Oral bioavailability (% F) was calculated on the basis of the ratio of the amount of drug absorbed systemically from oral administration (AUC p.o.) relative to the amount of systemic drug obtained from intravenous administration (AUC iv).

[4] = Rat P.O. pharmacokinetics and oral bioavailability; assay type: in vivo, rats; details: for Rat P.O. % F (%): AUC p.o. relative to AUC iv; for Cmax / Rat P.O. tmax: P.O. about 37 mg/kg, PEG 300 vehicle; for Cmax when administered orally, in words: oral
Experimental: as §3

[5] = IV-PO crossover oral bioavailability studies; assay type: in vivo; details: two Sprague-Dawley rats; IV 7 and 3 mg/kg (DMSO), oral 22 and 50 mg/kg (PEG300)
Experimental: Compound (19) was tested in IV-PO crossover studies in two Sprague-Dawley rats. For the IV portion of the studies, compound (19) was given at doses of 7 and 3 mg/kg, as a short infusion (30–60 seconds) via a jugular vein catheter using a vehicle of DMSO and a dose volume of 1 ml/kg. Heparinized blood samples were collected at close intervals through 3 hours, the plasma was separated, and plasma concentrations of compound (19) were determined by HPLC. One to two weeks later, the same rats were given doses of 22 and 50 mg/kg by gastric intubation. The vehicle was PEG300 and the dose volume was 10 ml/kg. Blood samples were collected at regular intervals through 24 hours, and analyzed as above. The oral bioavailability in both of these studies was 100%. Based on the excellent oral bioavailability of compound (19), it is expected that compound (19) will be an effective inhibitor of systemic aspartic protease when administered orally. Other compounds of the present invention also are expected to have-good oral bioavailability.

[6] = comparison of Table 2 Ki values

| Structure (SMILES) | Ki (HIV-1 protease; Table 1, read-out: HIV-1 Ki) [nM] | Ki (HIV-1 protease; Table 2, read-out: HIV-1 Ki) [nM] | Ki ([3]; Table 1) [nM] | EC50 (HIV-1; Table 1) [nM] | EC50 (HIV-1; Table 2) [nM] | IC50 (normal cells; Table 2) [nM] | Ki (plasmepsin II) [nM] | IC50 (normal cells; Table 1) [nM] | further results |
| --- | --- | --- | --- | --- | --- | --- | --- | --- | --- |
| Cc1cccc(C)c1OCC(=O)N[C@@H](Cc1ccccc1)[C@@H](O)C[C@H](CC(C)C)NC(=O)[C@H](C(C)C)N1CCCNC1=O [(16)] | 0.007 | 0.007 | 0.137 | 23 | 23 | > 100000 | 357 | – | inhibitory activity against HIV-1 protease, in words (HIV-1 protease): excellent potency; Ki (HIV-1 protease; Table 3, read-out: HIV-1 Ki): 0.008 nM; potency relative to compound (24) against HIV-1 protease (HIV-1 protease; [6]): about ten-fold more potent than compound (24); Ki ([1]; Table 1): 0.091 nM; Ki [2]: 0.031 nM; EC50 (HIV-1; Table 3): 23 nM; Ki (cathepsin D): 3300 nM; potency relative to compound (24) against plasmepsin II (plasmepsin II; [6]): about ten-fold more potent than compound (24); Rat IV CL (Rat IV pharmacokinetics): 9.8 mL/min/kg; Rat IV t1/2 (Rat IV pharmacokinetics): 27 min; Rat P.O. % F (%) [4]: 1%; Cmax [4]: 269 nM; Rat P.O. tmax [4]: 10 to 15 min |
| Cc1cccc(C)c1OCC(=O)N[C@@H](Cc1ccccc1)[C@@H](O)C[C@H](CC(C)C)NC(=O)[C@@H](NC(=O)N1CCOCC1)C(C)C [(45), (2S,3S,5S)-2-[N-[2-(2,6-dimethylphenoxy)acetyl]amino]-5-[N-[[N′-(morpholin-4)carbonyl]valinyl]amino]-3-hydroxy-7-methyl-1-phenyloctane] | 0.05 | – | 0.437 | 170 | – | – | – | > 100000 | Ki (HIV-1 protease; Table 3, read-out: HIV-1 Ki): 0.05 nM; EC50 (HIV-1; Table 3): 170 nM; Rat IV CL (Rat IV pharmacokinetics): 67.5 mL/min/kg; Rat IV t1/2 (Rat IV pharmacokinetics): 20 min; Rat P.O. % F (%) [4]: 29%; Cmax [4]: 573 nM; Rat P.O. tmax [4]: 16 min |
| CC(C)[C@H](NC(=O)OCc1ccccn1)C(=O)N[C@@H](Cc1ccccc1)C[C@H](O)[C@H](Cc1ccccc1)NC(=O)[C@@H](NC(=O)OCc1ccccn1)C(C)C [(22), reference compound] | 0.015 | – | 0.271 | – | – | – | – | – | Ki ([1]; Table 1): 0.21 nM |
| CC(C)C[C@@H](C[C@H](O)[C@H](Cc1ccccc1)NC(=O)c1ccccc1NC(=O)OCc1ccccn1)NC(=O)c1ccccc1NC(=O)OCc1ccccn1 [(21)] | 0.14 | – | – | 127 | – | – | – | > 20000 | Ki ([1]; Table 1, in nM): 2.7 nM |
| Cc1cccc(C)c1OCC(=O)N[C@@H](Cc1ccccc1)[C@@H](O)C[C@H](CC(C)C)NC(=O)c1ccc(N)cc1 [(31), (2S,3S,5S)-5-[N-(4-aminobenzoyl)amino]-2-[N-[2-(2,6-dimethylphenoxy)acetyl]amino]-3-hydroxy-7-methyl-1-phenyloctane] | – | – | – | – | – | > 100000 | 30 | > 100000 | Ki (HIV-1 protease): 1.2 nM; inhibitory activity against HIV-1 protease, in words (HIV-1 protease): generally potent; EC50 (HIV-1; Human immunodeficiency virus 1, Table 1): 2000 nM; inhibitory activity against cathepsin D, in words (cathepsin D): generally potent; inhibitory activity against plasmepsin II, in words (plasmepsin II): generally potent |
| Cc1ccccc1C(=O)N[C@@H](Cc1ccccc1)[C@@H](O)C[C@H](CC(C)C)NC(=O)OC(C)(C)C [(38)] | – | – | – | – | – | – | – | – | Ki (HIV-1 protease; Table 1, in nM, read-out: HIV-1 Ki): 2.1 nM; Ki ([1]; Table 1, in nM): 12 nM |
| CC(C)C[C@@H](C[C@H](O)[C@H](Cc1ccccc1)NC(=O)O[C@H]1CCOC1)NC(=O)[C@H](C(C)C)N1CCCNC1=O [(35), (2S,3S,5S)-2-[N-(3S-terahydrofuranyloxycarbonyl]amino]-5-[N-[[3-methyl-2S-(2-oxo-tetrahydropyrimidin-1-yl)]butyryl]amino]-3-hydroxy-7-methyl-1-phenyloctane] | 0.094 ± 0.024 | – | – | 700 | – | – | – | > 100000 | Ki ([3]; Table 1, in nM): 3.2 nM |
| Cc1cccc(C)c1OCC(=O)N[C@@H](CC(C)C)C[C@H](O)[C@H](Cc1ccccc1)NC(=O)[C@H](C(C)C)N1CCCNC1=O [(43)] | 0.176 | – | – | 540 | – | – | – | > 100000 | Ki (HIV-1 protease; Table 3, read-out: HIV-1 Ki): 0.176 nM; EC50 (HIV-1; Table 3): 540 nM; Rat IV CL (Rat IV pharmacokinetics): 36.6 mL/min/kg; Rat IV t1/2 (Rat IV pharmacokinetics): 28 min; Cmax [4]: 2100 nM; Rat P.O. tmax [4]: 120 min; Cmax when administered orally, in words [4]: micromolar |
| CCOC(=O)N[C@H](C(=O)N[C@@H](CC(C)C)C[C@H](O)[C@H](Cc1ccccc1)NC(=O)COc1c(C)cccc1C)C(C)C [(46)] | 0.054 | – | 0.671 | 160 | – | – | – | > 100000 | – |
| Cc1cccc(C)c1OCC(=O)N[C@@H](Cc1ccccc1)[C@@H](O)C[C@H](CC(C)C)NC(=O)O[C@H]1CCOC1 [(26)] | 0.06 | 0.06 | – | 700 | 700 | > 100000 | 55 | – | Ki ([3]; Table 1, in nM): 2.7 nM; Ki (cathepsin D): 3.5 nM |
| Cc1cccc(C)c1OCC(=O)N[C@@H](Cc1ccccc1)[C@@H](O)C[C@H](CC(C)C)NC(=O)[C@@H](NC(=O)OCc1ccccn1)C(C)C [(30), (2S,3S,5S)-2-[N-[2-(2,6-dimethylphenoxy)acetyl]amino]-5-[N-[N′-(pyridine-2-methoxycarbonyl)valinyl]amino]-3-hydroxy-7-methyl-1-phenyloctane] | 0.017 | 0.017 | 0.41 | 83 | 83 | > 100000 | 2350 | > 100000 | Ki (cathepsin D): 3300 nM |
| CC(C)C[C@@H](C[C@H](O)[C@H](Cc1ccccc1)NC(=O)OCc1cncs1)NC(=O)[C@H](C(C)C)N1CCCNC1=O [Compound (19), (2S,3S,5S)-5-[N-[[3-methyl-2S-(2-oxo-tetrahydropyrimidin-1-yl)]butyryl]amino]-2-[N-[(thiazol-5-yl-methoxy)carbonyl]amino]-3-hydroxy-7-methyl-1-phenyloctane] | 0.07 ± 0.01 | – | – | 500 | – | – | – | > 100000 | Ki (HIV-1 protease; Table 3, read-out: HIV-1 Ki): 0.07 nM; EC50 (HIV-1; Table 3): 500 nM; Rat IV CL (Rat IV pharmacokinetics): 25 mL/min/kg; Rat IV t1/2 (Rat IV pharmacokinetics): 18 min; Cmax [4]: 24800 nM; Rat P.O. tmax [4]: 120 to 360 min; Cmax when administered orally, in words [4]: micromolar; oral bioavailability [5]: 100% |
| Cc1cccc(C)c1OCC(=O)N[C@@H](Cc1ccccc1)[C@@H](O)C[C@H](CC(C)C)NC(=O)c1cccc(N)c1 [(32)] | 0.331 | 0.33 | – | 2000 | 2000 | > 100000 | 18 | > 100000 | inhibitory activity against HIV-1 protease, in words (HIV-1 protease): generally potent; inhibitory activity against cathepsin D, in words (cathepsin D): generally potent; Ki (cathepsin D): 7.4 nM; inhibitory activity against plasmepsin II, in words (plasmepsin II): generally potent |
| Cc1cccc(C)c1OCC(=O)N[C@@H](Cc1ccccc1)[C@@H](O)C[C@H](CC(C)C)NC(=O)NC(C)(C)C [(28), (2S,3S,5S)-5-[N-[[N′-(tert-butyl)amino]carbonyl]amino]-2-[N-[2-(2,6-dimethylphenoxy)acetyl]amino]-3-hydroxy-7-methyl-1-phenyloctane] | 0.1 | 0.1 | – | 2000 | 2000 | > 100000 | 107 | – | inhibitory activity against HIV-1 protease, in words (HIV-1 protease): generally potent; inhibitory activity against cathepsin D, in words (cathepsin D): generally potent; inhibitory activity against plasmepsin II, in words (plasmepsin II): generally potent |
